According to publication PMC7560626, “Active site competition is the mechanism for the inhibition of lipoprotein-associated phospholipase A2 by detergent micelles or lipoproteins and for the efficacy reduction of darapladib” (Scientific Reports, 2020):
Like-named read-outs stand apart in the source and are kept apart here. Blank lines part the entries; values can stand above or below the compound they belong to.

Tests used:
[1] = Distribution in bulk phase, detergent micelles and lipoproteins by SEC (TSKgel G3000SWXL); type: physicochemical
Description: Figure 8 Distribution of 14:0 NPS-PC and darapladib under different conditions. Assay methods are described in Experimental Procedures. (a) Distribution of 14:0 NPS-PC in TBS, pH 7.4, with and without detergents. Twenty µl of 14:0 NPS-PC at 10 µM were resolved by a TSKgel G3000SWXL column in TBS, pH 7.4, containing no detergent, 10 mM CHAPS or 60 µM Tween-20. Absorbance at 260 nm were monitored for 14:0 NPS-PC. Bulk phase is after fraction number 17 or after elution time 17 min. (b) Distribution of darapladib in TBS, pH 7.4, with and without detergents. Forty µl of darapladib in mobile phase buffer at 0.2 µM were resolved by a TSKgel G3000SWXL column in TBS, pH 7.4, containing no detergent, 10 mM CHAPS or 600 µM Tween-20. Relative darapladib concentration in each fraction was shown by inhibition of spiked Lp-PLA2. (c) Distribution of darapladib in TBS, pH 7.4, containing HDL or LDL. Forty µl of 1 mg/ml HDL or LDL with or without 0.2 µM darapladib were resolved by a TSKgel G3000SWXL column in TBS, pH 7.4. Relative darapladib concentration in each fraction was quantitated by inhibition of spiked Lp-PLA2. (d) Distribution of darapladib in human serum. Forty µl of neat human serum with or without 150 µM darapladib under the conditions as indicated were resolved by a TSKgel G3000SWXL column in TBS, pH 7.4. Relative darapladib concentration in each fraction was determined by inhibition of spiked Lp-PLA2.
Fractionation chromatography was carried out on an Akta10 or Akta100 by using a 10 mm × 300 mm Sperose-6 column at ambient temperature with the flow rate of 0.3 ml per minute. Fifty to two hundred µl of serum samples were injected per run depending on the Lp-PLA2 concentrations of the samples after the column was equilibrated with the running buffer (PBS, pH 7.2). Fraction collection was started at 21 min after sample injection and the collection volume was 0.6 ml/tube. Distribution of 14:0 NPS-PC and darapladib were carried out by separation of 20 – 40 µl of samples on a TSKgel G3000SWXL (7.8 mm × 30 cm, 5 µm) in TBS, pH 7.4, with and without detergents using a HPLC at flow rate of 0.8 ml/min. Fractions were collected at 1 min per tube starting at 6 min and ending at 21 min. Signal of 14:0 NPS-PC was detected by monitoring at 260 nm. Darapladib were assayed based on its inhibition of Lp-PLA2 activity. To one hundred µl of fraction, 10 µl of Lp-PLA2 at the concentration of approximately 0.5 µg/ml were added and the mixture was incubated at ambient temperature for 30 min with shaking. Reaction was started by adding 50 µl of mixture of CHAPS, SNS (sodium 1-nonane sulfonate) and 14:0 NPS-PC in buffer of 150 mM HEPES, pH 7.5, containing 12 mM EDTA. The final concentrations of CHAPS, SNS and 14:0 NPS-PC were 5 mM, 10 mM and 50 µM respectively. The hydrolysis reaction was monitored at 405 nm for 5 min. Fractions were also assayed for residual Lp-PLA2 activity by mixing in 100 µl fraction with 50 µl buffer of 150 mM HEPES, pH 7.5, containing 30 mM SNS, 30 mM CHAPS, 12 mM EDTA and 1.6 mM 14:0 NPS-PC.

[2] = CMC by polarized fluorescence anisotropy with fluorescein as probe; type: physicochemical; details: TBS, pH 7.4
Description: CMC of CHAPS and 14:0 NPS-PC were determined by polarized fluorescence anisotropy based on the method by Thorsteinsson et al.[21] with modification in a Varian Cary Eclipse fluorescence spectrophotometer using fluorescein as probe. Fluorescein was dissolved in TBS, pH 7.4, at final concentration of 0.1 µM. Solid CHAPS (control) or 14:0 NPS-PC was dissolved in TBS-fluorescein solution at concentrations indicated in figure and subjected to serial dilution in the same buffer. All fleshly prepared solutions were measured for fluorescence emission at 520 nm (excited at 490 nm) and compared the emission optics for the horizontal orientation to the vertical orientation. The anisotropy ratio of fluorescence intensities was plotted against the concentration incrementation of CHAPS or 14:0 NPS-PC. The anisotropy ratio was calculated as the followings. Anisotropyratior=IVV-G×IVH÷IVV+2×G×IVH where IVV indicates the intensity with vertically polarized excitation and vertical polarization on the detected emission. IVH indicates the intensity when using a vertical polarizer on the excitation and horizontal polarizer on the emission. G is a grating factor used as a correction for the instrument’s differential transmission of the two orthogonal vector orientations.

Lp-PLA2 [3] = target: T1, Lp-PLA2 (Homo sapiens, UniProt Q13093); experiment: Kinetics of hydrolysis of 14:0 NPS-PC by recombinant Lp-PLA2; type: biochemical
T1 sequence (Q13093 22-441): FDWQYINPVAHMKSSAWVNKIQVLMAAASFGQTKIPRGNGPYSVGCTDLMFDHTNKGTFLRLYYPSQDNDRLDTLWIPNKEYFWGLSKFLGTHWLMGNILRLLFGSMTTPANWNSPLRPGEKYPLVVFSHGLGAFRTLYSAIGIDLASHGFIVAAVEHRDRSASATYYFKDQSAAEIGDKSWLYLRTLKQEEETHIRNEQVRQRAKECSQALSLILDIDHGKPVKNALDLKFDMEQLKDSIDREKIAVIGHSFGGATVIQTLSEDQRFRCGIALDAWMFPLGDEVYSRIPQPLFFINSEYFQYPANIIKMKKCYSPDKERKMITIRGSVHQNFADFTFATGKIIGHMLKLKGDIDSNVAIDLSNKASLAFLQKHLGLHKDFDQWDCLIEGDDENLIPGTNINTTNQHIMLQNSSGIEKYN
Description: (a) Fitting of kinetic model for hydrolysis of 14:0 NPS-PC in the absence and presence of 10 mM CHAPS. […] Details are in Experiment Procedures. (c) Determination of CMC for 14:0 NPS-PC and CHAPS by anisotropy of polarized fluorescence using fluorescein as probe. Details are in Experiment Procedures.
Lp-PLA2 activity was assayed under different conditions and different methods were used. […] Purified recombinant Lp-PLA2 in storage buffer was diluted into TBS or PBS, pH 7.4–7.6, at the concentration of 1 µg/ml and 20 µl of the solution were used for each reaction. […] Generally, hydrolysis of 14:0 NPS-PC was monitored at 405 nm for 5 min under ambient temperature for all kinetic assays. […] Lp-PLA2 kinetic assays were performed in the same assay buffer with 14:0 NPS-PC concentrations as indicated. Assays were carried out in 96-well plates using a SpectraMax m2e plate reader. Hydrolysis of 14:0 NPS-PC was monitored at 405 nm for 5 min under ambient temperature. Serum Lp-PLA2 activity and mass concentration were measured by using PLAC activity and mass test kits (diaDexus) following the manufacturer's instruction. PLAC mass measurements were performed by manual ELISA and PLAC activity measurements were carried out by the Beckman Coulter AU400 analyzer as described in a previous publication. Twenty or forty μl of the fractionated sample per tube were used, depending on the Lp-PLA2 concentration of the samples. Ten mM CHAPS-modified PLAC ELISA test kits were made by adding solid CHAPS to the assay buffer to the final concentration of 10 mM. The assays follow the same instructions as the unmodified PLAC mass test kits. Other Lp-PLA2 activity assays are as indicated in figures or other experimental sections.

[4] = in Fig. 1a; source not stated; cited from earlier work
Lp-PLA2 [5] = tested on: Lp-PLA2; design: method as in PMID 25173516, PMID 24678955; details: 160 mg daily for 12 weeks; cited from earlier work

form in bulk phase ([1]; 10 µM in TBS pH 7.4, absence of detergents): existed only as monomer
monomeric fraction detected in bulk ([1]; 10 µM in TBS pH 7.4 in presence of detergents): Less than 5%
fraction in mixed micelles ([1]; 10 µM in TBS pH 7.4 with 10 mM CHAPS or 60 µM Tween-20): > 95%
CMC [2]: 0.5 to 1 mM
Hill slope of the substrate titration curve (Lp-PLA2 [3]; absence of 10 mM CHAPS): approximately 2.0
Hill slope of the substrate titration curve (Lp-PLA2 [3]; presence of 10 mM CHAPS): approximately 1.0
Km (Lp-PLA2 [3]; with 10 mM CHAPS): 238 ± 11.7 µM
Vmax (Lp-PLA2 [3]; with 10 mM CHAPS): 187 ± 2 nmol/min/mL
Km (Lp-PLA2 [3]; without CHAPS): 187 ± 18.5 µM
Vmax (Lp-PLA2 [3]; without CHAPS): 191 ± 5 nmol/min/mL
Compound: CCCCCCCCCCCCCC(=O)OC[C@H](COP(=O)([O-])OCC[N+](C)(C)C)OC(=O)CCC(=O)Oc1ccc([N+](=O)[O-])cc1 [14:0 NPS-PC, 1-myristoyl-2-(4-nitrophenylsuccinyl)-sn-glycero-3-phosphocholine]

Compound: C[C@H](CCC(=O)NCCC[N+](C)(C)CCCS(=O)(=O)[O-])[C@H]1CC[C@H]2[C@@H]3[C@H](O)C[C@@H]4C[C@H](O)CC[C@]4(C)[C@H]3C[C@H](O)[C@]12C [CHAPS, 3-[(3-Cholamidopropyl)dimethylammonio]-1-propanesulfonate]
CMC [4]: 6 to 10 mM
CMC [2]: 5 to 10 mM

Compound: C[C@@H]1CC[C@@]2(OC1)O[C@H]1[C@@H](O)[C@H]3[C@@H]4CC[C@H]5C[C@@H](O[C@@H]6O[C@H](CO)[C@H](O[C@@H]7O[C@H](CO)[C@@H](O)[C@H](O[C@@H]8OC[C@@H](O)[C@H](O)[C@H]8O)[C@H]7O[C@@H]7O[C@H](CO)[C@H](O)[C@H](O[C@@H]8O[C@H](CO)[C@@H](O)[C@H](O)[C@H]8O)[C@H]7O)[C@H](O)[C@H]6O)[C@H](O)C[C@]5(C)[C@H]4CC[C@]3(C)[C@H]1[C@@H]2C [Digitonin]
CMC [4]: 0.09 mM

Compound: CCN(CC)CCN(Cc1ccc(-c2ccc(C(F)(F)F)cc2)cc1)C(=O)Cn1c(SCc2ccc(F)cc2)nc(=O)c2c1CCC2 [darapladib]
reduction of Lp-PLA2 activity (Lp-PLA2 [5]): approximately 66%
detection in TBS buffer (solubility) ([1]; 0.2 µM in TBS pH 7.4, absence of detergents): not detectable
solubilization by detergents ([1]; 0.2 µM in TBS pH 7.4 with 10 mM CHAPS or 0.6 mM Tween-20): solubilized

Compound: Triton X-100
CMC [4]: 0.3 mM

Compound: Tween-20
CMC [4]: 0.06 mM
mechanism of inhibition of Lp-PLA2 (Lp-PLA2 [3]; Lineweaver–Burk plots at different Tween-20 concentrations): competitive
